Results as given in article PMC6514978, “Synthesis, Antibacterial Activities, Mode of Action and Acute Toxicity Studies of New Oxazolidinone-Fluoroquinolone Hybrids” (Molecules, 2019).
In brackets after ≈: the same amount, converted by molar mass.

Legend:
MRSA (13B262) = experiment: MIC, broth microdilution (CLSI), clinical isolate; assay type: cell-based; settings: Staphylococcus aureus
Description: (§1) 6 standard strains and 3 clinical isolates were used to the preliminary evaluation of in vitro antibacterial activities of oxazolidinone-fluoroquinolone hybrids. For the further evaluation of hybrids OBP-4 and OBP-5, 263 clinical isolates including S. aureus (46), S. haemolyticus(32), S. epidermidis (10), E. faecalis (72), E. faecium (47), S. pneumoniae (13), H. parasuis (34), S. suis (9), and 8 resistant strains including MRSA, MRSE, CIP-resistant S. aureus and S. haemolyticus, VAN and quinolone-resistant S. pneumoniae, LZD-resistant E. faecalis, LZD/VAN and quinolone-resistant E. faecium were collected and tested.
(§2) Susceptibility testing of oxazolidinone-fluoroquinolone hybrids against various bacteria was performed by the broth microdilution method as outlined by the Clinical and Laboratory Standards Institute (CLSI). Three types of media, including cation-adjusted Mueller Hinton broth, Haemophilus Test Medium and cation-adjusted Mueller Hinton broth that contained 3%–5% lysed horse blood, were used to culture the corresponding bacteria. All compounds including comparator drugs were dissolved in an appropriate solvent at a concentration of 2.048 mg/mL and then serially diluted two-fold to provide the required concentrations. A final inoculum of 5 × 10^5 CFU/mL was used and plates were read after incubation for 16–24 h at 35 °C. […] Standard quality control strains (ATCC) were included throughout. Each determination was repeated in triplicate.

[1] = tested on: S. agalactiae^R (13B317), levofloxacin-resistant S. agalactiae; experiment: MIC, broth microdilution (CLSI), clinical isolate; assay type: cell-based; settings: Streptococcus agalactiae; levofloxacin-resistant S. agalactiae (13B317)
Description: as §1, §2

E. coli (ATCC25922) = experiment: MIC, broth microdilution (CLSI), standard strain; assay type: cell-based; settings: Escherichia coli, ATCC25922
Description: as §1, §2

E. faecalis (ATCC29212) = experiment: MIC, broth microdilution (CLSI), standard strain; assay type: cell-based; settings: Enterococcus faecalis; E. faecalis (ATCC29212); read-out: MIC
Description: as §1, §2

[2] = tested on: H. influenzae (ATCC49247); experiment: MIC, broth microdilution (CLSI), standard strain; assay type: cell-based; settings: Haemophilus influenzae
Description: as §1, §2

[3] = tested on: P. Aeruginosa (ATCC27853); experiment: MIC, broth microdilution (CLSI), standard strain; assay type: cell-based; settings: Pseudomonas aeruginosa, ATCC27853
Description: as §1, §2

S. aureus (ATCC29213) = experiment: MIC, broth microdilution (CLSI), standard strain; assay type: cell-based; settings: Staphylococcus aureus
Description: as §1, §2

[4] = tested on: S. pneumoniae (ATCC49619); experiment: MIC, broth microdilution (CLSI), standard strain; assay type: cell-based; settings: Streptococcus pneumoniae
Description: as §1, §2

[5] = tested on: S. epidermidis (10) clinical isolates; experiment: Susceptibility of clinical isolates (MIC); assay type: cell-based, Staphylococcus epidermidis
Description: as §2, with “All compounds including comparator drugs were dissolved in an appropriate solvent at a concentration of 2.048 mg/mL and then serially diluted two-fold to provide the required concentrations.” left out

[6] = tested on: S. suis (9) clinical isolates; experiment: Susceptibility of clinical isolates (MIC); assay type: cell-based, Streptococcus suis; settings: Streptococcus suis, S. suis, 9 clinical isolates
Description: as §2, with “All compounds including comparator drugs were dissolved in an appropriate solvent at a concentration of 2.048 mg/mL and then serially diluted two-fold to provide the required concentrations.” left out

[7] = tested on: S. pneumoniae (13) clinical isolates; experiment: Susceptibility of clinical isolates (MIC); assay type: cell-based, Streptococcus pneumoniae
Description: as §2, with “All compounds including comparator drugs were dissolved in an appropriate solvent at a concentration of 2.048 mg/mL and then serially diluted two-fold to provide the required concentrations.” left out

[8] = tested on: E. faecium (47) clinical isolates; experiment: Susceptibility of clinical isolates (MIC); assay type: cell-based, Enterococcus faecium
Description: as §2, with “All compounds including comparator drugs were dissolved in an appropriate solvent at a concentration of 2.048 mg/mL and then serially diluted two-fold to provide the required concentrations.” left out

[9] = tested on: H. parasuis (34) clinical isolates; experiment: Susceptibility of clinical isolates (MIC); assay type: cell-based, Haemophilus parasuis; settings: Glaesserella parasuis, H. parasuis, 34 clinical isolates
Description: as §2, with “All compounds including comparator drugs were dissolved in an appropriate solvent at a concentration of 2.048 mg/mL and then serially diluted two-fold to provide the required concentrations.” left out

MRSE = experiment: MIC against drug-resistant strain; assay type: cell-based, S. epidermidis; settings: Staphylococcus epidermidis, read-out: MIC
Description: (§3) 6 standard strains and 3 clinical isolates were used to the preliminary evaluation of in vitro antibacterial activities of oxazolidinone-fluoroquinolone hybrids.
as §2, with “All compounds including comparator drugs were dissolved in an appropriate solvent at a concentration of 2.048 mg/mL and then serially diluted two-fold to provide the required concentrations.” left out

CIP-resistant S. aureus = experiment: MIC against drug-resistant strain; assay type: cell-based; settings: Staphylococcus aureus; S. aureus, CIP-resistant; read-out: MIC
Description: as §3
as §2, with “All compounds including comparator drugs were dissolved in an appropriate solvent at a concentration of 2.048 mg/mL and then serially diluted two-fold to provide the required concentrations.” left out

[10] = tested on: CIP-resistant S. haemolyticus; experiment: MIC against drug-resistant strain; assay type: cell-based; settings: Staphylococcus haemolyticus; S. haemolyticus, CIP-resistant; read-out: MIC
Description: as §3
as §2, with “All compounds including comparator drugs were dissolved in an appropriate solvent at a concentration of 2.048 mg/mL and then serially diluted two-fold to provide the required concentrations.” left out

[11] = tested on: LZD and quinolone-resistant E. faecium; experiment: MIC against drug-resistant strain; assay type: cell-based; settings: Enterococcus faecium; E. faecium, LZD and quinolone-resistant; read-out: MIC
Description: as §3
as §2, with “All compounds including comparator drugs were dissolved in an appropriate solvent at a concentration of 2.048 mg/mL and then serially diluted two-fold to provide the required concentrations.” left out

MRSA = experiment: MIC against drug-resistant strain; assay type: cell-based; settings: Staphylococcus aureus, read-out: MIC
Description: as §3
as §2, with “All compounds including comparator drugs were dissolved in an appropriate solvent at a concentration of 2.048 mg/mL and then serially diluted two-fold to provide the required concentrations.” left out

[12] = tested on: VAN and quinolone-resistant E. faecium; experiment: MIC against drug-resistant strain; assay type: cell-based; settings: Enterococcus faecium; E. faecium, VAN and quinolone-resistant; read-out: MIC
Description: as §3
as §2, with “All compounds including comparator drugs were dissolved in an appropriate solvent at a concentration of 2.048 mg/mL and then serially diluted two-fold to provide the required concentrations.” left out

[13] = tested on: VAN and quinolone-resistant S. pneumoniae; experiment: MIC against drug-resistant strain; assay type: cell-based; settings: Streptococcus pneumoniae; S. pneumoniae, VAN and quinolone-resistant; read-out: MIC
Description: as §3
as §2, with “All compounds including comparator drugs were dissolved in an appropriate solvent at a concentration of 2.048 mg/mL and then serially diluted two-fold to provide the required concentrations.” left out

[14] = E. faecium clinical isolates, CLSI criteria

`CC(=O)NC[C@H]1CN(c2ccc(N3CCOCC3)c(F)c2)C(=O)O1` [LZD, linezolid, reference compound] showed an MIC (MRSA (13B262)) of 4 µg/mL (≈ 11.9 µM), an MIC [1] of 1 µg/mL (≈ 2.96 µM) and an MIC (E. coli (ATCC25922)) of 128 µg/mL (≈ 379 µM). The MIC (E. faecalis (ATCC29212)) was 4 µg/mL (≈ 11.9 µM), the MIC [2] was 8 µg/mL (≈ 23.7 µM) and the MIC [3] was 128 µg/mL (≈ 379 µM). The MIC (S. aureus (ATCC29213)) was 4 µg/mL (≈ 11.9 µM), the MIC [4] was 1 µg/mL (≈ 2.96 µM) and the “CLSI %S (susceptible)” value ([5]; S. epidermidis clinical isolates, CLSI criteria) was 100.0/- %. For the same compound, the MIC50 ([5]; Staphylococcus epidermidis, S. epidermidis, 10 clinical isolates, read-out: MIC50) was 1 µg/mL (≈ 2.96 µM), the MIC90 ([5]; Staphylococcus epidermidis, S. epidermidis, 10 clinical isolates, read-out: MIC90) was 1 µg/mL (≈ 2.96 µM) and the MIC ([5]; Staphylococcus epidermidis, S. epidermidis, 10 clinical isolates, read-out: MIC Range) was 0.5 to 1 µg/mL (≈ 1.48 to 2.96 µM). The MIC50 ([6]; read-out: MIC50) was 0.5 µg/mL (≈ 1.48 µM), the MIC90 ([6]; read-out: MIC90) was 4 µg/mL (≈ 11.9 µM) and the MIC ([6]; read-out: MIC Range) was 0.5 to 4 µg/mL (≈ 1.48 to 11.9 µM). The “CLSI %S (susceptible)” value ([7]; S. pneumoniae clinical isolates, CLSI criteria) was 76.9/- %, the “MIC Range” value ([7]; S. pneumoniae, 13 clinical isolates) was 0.5 to 4 µg/mL and the MIC50 ([7]; Streptococcus pneumoniae, S. pneumoniae, 13 clinical isolates, read-out: MIC50) was 0.5 µg/mL (≈ 1.48 µM). The MIC90 ([7]; Streptococcus pneumoniae, S. pneumoniae, 13 clinical isolates, read-out: MIC90) was 0.5 µg/mL (≈ 1.48 µM), the “CLSI %R (resistant)” value [8, 14] was 13.8% and the “CLSI %S (susceptible)” value [8, 14] was 82.8%. The “MIC Range” value ([8]; E. faecium, 47 clinical isolates) was 0.5 to 16 µg/mL, the MIC50 ([8]; Enterococcus faecium, E. faecium, 47 clinical isolates, read-out: MIC50) was 2 µg/mL (≈ 5.93 µM) and the MIC90 ([8]; Enterococcus faecium, E. faecium, 47 clinical isolates, read-out: MIC90) was 4 µg/mL (≈ 11.9 µM). For the same compound, the MIC50 ([9]; read-out: MIC50) was 16 µg/mL (≈ 47.4 µM), the MIC90 ([9]; read-out: MIC90) was greater than 32 µg/mL and the MIC (MRSE) was 0.25 µg/mL (≈ 0.741 µM). The MIC (CIP-resistant S. aureus) was 2 µg/mL (≈ 5.93 µM), the MIC [10] was 8 µg/mL (≈ 23.7 µM) and the MIC [11] was 16 µg/mL (≈ 47.4 µM). It also gave an MIC (MRSA) of 4 µg/mL (≈ 11.9 µM), an MIC [12] of 2 µg/mL (≈ 5.93 µM) and an MIC [13] of 0.5 µg/mL (≈ 1.48 µM).
